Measured values reported in patent publication US20080312292A1, “Antipruritics” (priority 2002, published 2008).
Marks after values point to notes of the source that are not given here.

Molecular target: T1, mouse CB2 receptor (Mus musculus, UniProt P47936)
T1 construct: The membrane fractions of mouse brain and spleen that abundantly express CB1 and CB2 receptor, respectively; from tissue; host or cells: mouse spleen membrane fraction (C57BL/6 J)
Experiment: Binding inhibitory activity to mouse cannabinoid receptors, spleen membrane fraction
Design: species or system C57BL/6 J mice
Conditions: mouse spleen membrane fraction; read-out: Binding Assay: Ki Spleen (CB2)

T1 sequence (P47936 whole entry): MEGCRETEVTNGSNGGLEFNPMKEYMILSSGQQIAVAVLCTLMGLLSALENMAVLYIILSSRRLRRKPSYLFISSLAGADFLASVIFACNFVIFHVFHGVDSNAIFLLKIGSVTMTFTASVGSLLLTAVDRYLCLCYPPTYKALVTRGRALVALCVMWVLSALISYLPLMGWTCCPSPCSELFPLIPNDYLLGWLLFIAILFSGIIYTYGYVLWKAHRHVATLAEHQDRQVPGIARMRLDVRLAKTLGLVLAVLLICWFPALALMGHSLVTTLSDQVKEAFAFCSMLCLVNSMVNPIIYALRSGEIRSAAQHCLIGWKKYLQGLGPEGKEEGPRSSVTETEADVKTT

Row | SMILES | Ki
1 | Cc1c(C(=O)c2cccc3ccccc23)c2cccc3c2n1[C@H](CN1CCOCC1)CO3 [WIN55212-2, reference compound] | 6 nM
2 | CCCCCc1cc(O)c2c(c1)OC(C)(C)[C@@H]1CCC(C)=C[C@@H]21 [Δ^9-tetrahydrocannabinol, delta-9-tetrahydrocannabinol, reference compound] | 9.2 nM

Molecular target: T2, Human cannabinoid receptor CB1R (Homo sapiens, UniProt P21554)
T2 construct: expressed in transfected cells; host or cells: CHO cells
Experiment: Human cannabinoid receptor binding inhibition, [3H]CP55940, CB1R
Conditions: membranes of CB1R-expressing CHO cells, [3H]CP55940 0.5 nM; read-out: Ki CB1 receptor
Experimental: (§1) The crude membrane fractions as Human cannabinoid receptor were then prepared from the CB1R or CB2R-expressing CHO cells. Receptor binding assay was performed by incubating the membranes with each test compound and 38,000 dpm [^3H]CP55940 (at a final concentration of 0.5 nM: NEN Life Science Products) in the assay buffer (50 mM Tris-HCl; 1 mM EDTA, 3 mM MgCl2, pH 7.4) containing 0.5% bovine serum albumin (BSA) for 2 hr at 25° C. The incubation mixture was filtered through 1% polyethylenimine (PEI)-treated GF/C glass filter and washed with 50 mM Tris-HCl (pH 7.4) containing 0.1% BSA. The radioactivity was then counted with a liquid scintillation counter. […] Ki value of test compound is calculated by obtained IC50 value and Kd value of [^3H]CP55940.

T2 sequence (P21554 whole entry): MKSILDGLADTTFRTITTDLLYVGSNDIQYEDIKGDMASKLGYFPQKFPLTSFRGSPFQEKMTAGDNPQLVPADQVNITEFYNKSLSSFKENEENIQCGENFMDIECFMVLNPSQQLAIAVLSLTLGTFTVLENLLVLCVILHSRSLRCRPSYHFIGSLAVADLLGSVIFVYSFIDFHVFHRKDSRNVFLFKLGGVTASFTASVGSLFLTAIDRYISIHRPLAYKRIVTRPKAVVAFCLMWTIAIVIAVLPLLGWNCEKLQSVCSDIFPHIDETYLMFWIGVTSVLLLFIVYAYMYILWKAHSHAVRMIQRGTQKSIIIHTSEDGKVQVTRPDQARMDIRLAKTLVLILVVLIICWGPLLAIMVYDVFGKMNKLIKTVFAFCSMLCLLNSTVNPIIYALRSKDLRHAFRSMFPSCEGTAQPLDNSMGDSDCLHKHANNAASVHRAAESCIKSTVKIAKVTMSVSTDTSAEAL

Row | SMILES | Ki
3 | CCCCn1c(C)c(I)cc(C(=O)NCCc2ccccc2)c1=O [Compound 3-038] | 1250 nM
4 | CCCCn1c2c(cc(C(=O)NCc3ccccc3)c1=O)CCCC2 [Compound 4-001] | 2850 nM
5 | CCCCn1c2c(cc(C(=O)NCCc3ccccc3)c1=O)CCCC2 [Compound 4-002, 1-butyl-2-oxo-1,2,5,6,7,8-hexahydroquinoline-3-carboxylic acid phenethylamide] | 746 nM
6 | CCCCn1c2c(cc(C(=O)NCCc3ccccc3)c1=O)CCC2 [Compound 4-052] | 1500 nM
7 | CCCCn1c2c(cc(C(=O)NCCc3ccccc3)c1=O)CCCCCC2 [Compound 4-102] | 908 nM
8 | CCCCn1c2c(cc(C(=O)NCCc3ccc(N)cc3)c1=O)CCCCCC2 [Compound 4-104] | 54 nM
9 | CCCCn1c2c(cc(C(=O)NCCc3ccc(O)cc3)c1=O)CCCCCC2 [Compound 4-105] | 91 nM
10 | COCCn1c2c(cc(C(=O)NCc3ccccc3)c1=O)CCCCCC2 [Compound 4-301] | 1770 nM
11 | COCCn1c2c(cc(C(=O)NCCc3ccccc3)c1=O)CCCCCC2 [Compound 4-302] | > 5000 nM
12 | O=C(NCc1ccccc1)c1cc2c(n(Cc3ccncc3)c1=O)CCCCCC2 [Compound 4-310] | 512 nM
13 | CCSC(=O)N1CCSC1=Nc1ccccc1C(C)C [Compound I-6] | > 5000 nM

Molecular target: T3, Human cannabinoid receptor CB2R (Homo sapiens, UniProt P34972)
T3 construct: expressed in transfected cells; host or cells: CHO cells
Experiment: Human cannabinoid receptor binding inhibition, [3H]CP55940, CB2R
Conditions: membranes of CB2R-expressing CHO cells, [3H]CP55940 0.5 nM; read-out: Ki CB2 receptor
Experimental: as §1

T3 sequence (P34972 whole entry): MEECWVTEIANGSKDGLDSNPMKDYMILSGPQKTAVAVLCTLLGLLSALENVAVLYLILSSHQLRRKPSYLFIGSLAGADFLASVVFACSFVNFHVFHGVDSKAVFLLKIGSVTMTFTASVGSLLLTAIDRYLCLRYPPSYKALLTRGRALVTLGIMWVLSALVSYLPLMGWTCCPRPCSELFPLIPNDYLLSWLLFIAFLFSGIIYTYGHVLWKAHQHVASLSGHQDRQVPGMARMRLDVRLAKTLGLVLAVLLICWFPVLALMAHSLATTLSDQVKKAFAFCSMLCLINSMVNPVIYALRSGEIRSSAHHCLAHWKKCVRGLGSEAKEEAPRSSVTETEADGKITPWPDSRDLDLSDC

Row | SMILES | Ki
14 | CCCCn1c(C)c(C)cc(Oc2nc3ccccc3o2)c1=S [Compound 2-004, 1-butyl-5,6-dimethyl-3-O-(benzoxazol-2-yl)-2-thiopyridone] | 101 nM
15 | CCCCn1c(C)c(C)cc(C(=O)NCCc2ccccc2)c1=O [Compound 3-010] | 57 nM
16 | CCCCn1c(C)c(I)cc(C(=O)NCCc2ccccc2)c1=O [Compound 3-038] | 12 nM
17 | CCCCn1c2c(cc(C(=O)NCc3ccccc3)c1=O)CCCC2 [Compound 4-001] | 28 nM
18 | CCCCn1c2c(cc(C(=O)NCCc3ccccc3)c1=O)CCCC2 [Compound 4-002, 1-butyl-2-oxo-1,2,5,6,7,8-hexahydroquinoline-3-carboxylic acid phenethylamide] | 17 nM
19 | CCCCn1c2c(cc(C(=O)NCCc3ccccc3)c1=O)CCC2 [Compound 4-052] | 24 nM
20 | CCCCn1c2c(cc(C(=O)NCCc3ccccc3)c1=O)CCCCCC2 [Compound 4-102] | 1.6 nM
21 | CCCCn1c2c(cc(C(=O)NCCc3ccc(N)cc3)c1=O)CCCCCC2 [Compound 4-104] | 6 nM
22 | CCCCn1c2c(cc(C(=O)NCCc3ccc(O)cc3)c1=O)CCCCCC2 [Compound 4-105] | 2.1 nM
23 | COCCn1c2c(cc(C(=O)NCc3ccccc3)c1=O)CCCCCC2 [Compound 4-301] | 8 nM
24 | COCCn1c2c(cc(C(=O)NCCc3ccccc3)c1=O)CCCCCC2 [Compound 4-302] | 10 nM
25 | O=C(NCc1ccccc1)c1cc2c(n(Cc3ccncc3)c1=O)CCCCCC2 [Compound 4-310] | 9 nM
26 | CCCCn1c(C)c(C)cc(NC(=O)c2ccccc2Cl)c1=O [Compound 5-005] | 16 nM
27 | CCCCn1c(C)c(C)cc(NC(=O)c2ccccc2C)c1=O [Compound 5-006] | 14 nM

Tested on: compound 48/80-induced pruritus
Experiment: Inhibitory effect on compound 48/80-induced pruritus in ICR strain mice
Conditions: 10 mg/kg (i.p.), ICR mice, compound 48/80-induced scratching

Row | SMILES | Antipruritic Effect (%)
28 | CCCCCc1cc(O)c2c(c1)OC(C)(C)[C@@H]1CCC(C)=C[C@@H]21 [Δ^9-tetrahydrocannabinol, delta-9-tetrahydrocannabinol, reference compound] | 98**# %

Same assay, conditions: 100 mg/kg (p.o.), ICR mice, compound 48/80-induced scratching

Row | SMILES | Antipruritic Effect (%)
29 | Cc1c(C(=O)c2cccc3ccccc23)c2cccc3c2n1[C@H](CN1CCOCC1)CO3 [WIN55212-2, reference compound] | 70* %

Same assay, conditions: female ICR mice, oral administration once, scratching counted for 30 min

Row | SMILES | inhibitory effect on compound 48/80-induced pruritus (number of scratching vs vehicle group)
30 | CCCCCc1cc(O)c2c(c1)OC(C)(C)[C@@H]1CCC(C)=C[C@@H]21 [Δ^9-tetrahydrocannabinol, delta-9-tetrahydrocannabinol, reference compound] | inhibited compound 48/80-induced pruritus

Tested on: not given
Experiment: not given
Conditions: not given

Row | SMILES | melting point
31 | Cc1ccc(Oc2nc3ccccc3o2)c(=S)n1C | 245 to 247 °C
32 | CCn1c(C)c(C)cc(C(=O)NCc2ccccc2)c1=O | 117 °C
33 | CCCCn1c(C)c(C)cc(NC(=O)c2ccc(F)cc2)c1=O | 129 to 130 °C
34 | CCCCn1c(C)c(C)cc(NC(=O)OCc2ccccc2)c1=O | 65 to 66 °C
35 | CCCCn1c(C)c(C)cc(NC(=O)Nc2ccccc2Br)c1=O | 154 to 155 °C
36 | COc1c(Oc2nc3ccccc3o2)c(C)c(C)n(Cc2ccccc2)c1=O | 197 to 198 °C
37 | CCSC(=O)N1CC(C)(C)CSC1=Nc1ccc([N+](=O)[O-])cc1C(C)C [Compound I-46] | 119 to 120 °C
38 | CCCc1ccccc1N=C1SCC(C)(C)CN1C(=O)SC [Compound I-49] | 64 to 66 °C
39 | CSC(=O)N1CC(C)(C)CSC1=Nc1ccccc1C(C)C [Compound I-50] | 95 to 96 °C
40 | CCC(C)c1ccccc1N=C1SCC(C)(C)CN1C(=O)SC (stereo not drawn) [Compound I-51] | 53 to 56 °C
41 | CSC(=O)N1CC(C)(C)CSC1=Nc1cccc(C(C)C)c1 [Compound I-52] | 88 to 90 °C
42 | CCc1ccccc1N=C1SCC(C)(C)CN1C(=S)SC [Compound I-56] | 107 to 109 °C
43 | COc1ccccc1N=C1SCC(C)(C)CN1C(=S)SC [Compound I-60] | 128 to 130 °C
44 | CSC(=S)N1CC(C)(C)CSC1=Nc1ccccc1SC [Compound I-62] | 137 to 139 °C
45 | CSC(=S)N1CC(C)(C)CSC1=Nc1ccc(C)c(C)c1 [Compound I-74] | 126 to 128 °C
46 | CCSC(=S)N1CC(C)(C)CSC1=Nc1ccccc1C(C)C [Compound I-84] | 68 to 70 °C
47 | CCNC(=O)N1CC(C)(C)CSC1=Nc1ccccc1C(C)C [Compound I-92] | 52 to 53 °C
48 | COCC(=O)N1CC(C)(C)CSC1=Nc1ccccc1C(C)C [Compound I-93] | 76 to 78 °C
49 | CC(C)OC(=O)CSC(=S)N1CC(C)(C)CSC1=Nc1ccccc1C(C)C [II-13] | 95 to 96 °C
50 | C=CCSC(=S)N1CC2(CCCCC2)CSC1=Nc1ccc(CC)cc1 [II-88] | 98 to 100 °C
51 | C=CCSC(=S)N1CC2(CCOCC2)CSC1=Nc1ccccc1C(C)C [II-92] | 73.5 to 75 °C
52 | CSC(=S)N1CC2(CCOCC2)CSC1=Nc1ccccc1C(C)C [II-93] | 127 to 128 °C

Molecular target: T4, human CB2R (Homo sapiens, UniProt P34972)
T4 construct: expressed in transfected cells; host or cells: CHO cells
Experiment: Cannabinoid receptor-mediated suppression of forskolin-stimulated cAMP synthesis, CB2R
Type: cell-based
Conditions: not given

T4 sequence (P34972 whole entry): as above

Row | SMILES | IC50
53 | CCCCn1c(C)c(I)cc(C(=O)NCCc2ccccc2)c1=O [Compound 3-038] | 28.6 nM
54 | CCCCn1c2c(cc(C(=O)NCc3ccccc3)c1=O)CCCC2 [Compound 4-001] | 64.2 nM
55 | CCCCn1c2c(cc(C(=O)NCCc3ccccc3)c1=O)CCCCCC2 [Compound 4-102] | 1.7 nM
56 | CCCCn1c2c(cc(C(=O)NCCc3ccc(N)cc3)c1=O)CCCCCC2 [Compound 4-104] | 9.8 nM

Same assay, conditions: CHO cells expressing human CB2R, forskolin-stimulated cAMP synthesis; read-out: CB2 receptor IC50

Row | SMILES | IC50
57 | CCSC(=O)N1CC(C)(C)CSC1=Nc1ccc(C)cc1C [Compound I-39] | 13.7 nM
58 | CCSC(=O)N1CC(C)(C)CSC1=Nc1ccc([N+](=O)[O-])cc1C(C)C [Compound I-46] | 5.4 nM
59 | CCCc1ccccc1N=C1SCC(C)(C)CN1C(=O)SC [Compound I-49] | 2.2 nM
60 | CSC(=S)N1CC(C)(C)CSC1=Nc1ccc(C)c(C)c1 [Compound I-74] | 1.6 nM
61 | CCNC(=O)N1CC(C)(C)CSC1=Nc1ccccc1C(C)C [Compound I-92] | < 0.2 nM
62 | COCC(=O)N1CC(C)(C)CSC1=Nc1ccccc1C(C)C [Compound I-93] | 0.6 nM

Molecular target: T5, human CB1R (Homo sapiens, UniProt P21554)
T5 construct: expressed in transfected cells; host or cells: CHO cells
Experiment: cell-based
Conditions: CHO cells expressing human CB1R, forskolin-stimulated cAMP synthesis; read-out: CB1 receptor IC50

T5 sequence (P21554 whole entry): as the sequence (P21554 whole entry) above

Row | SMILES | IC50
63 | Cc1c(C)c(C)n(CC2CCCCC2)c(=O)c1C(=O)NCc1ccccc1 [Compound 3-109] | 2.7 nM
64 | CCCCn1c2c(cc(C(=O)NCC(C)(C)C)c1=O)CCCCCC2 [Compound 10-041] | 3.5 nM
65 | CCCCn1c2c(cc(C(=O)NC(=O)c3c(F)cccc3F)c1=O)CCCCCC2 [Compound 10-045] | 1.2 nM
66 | CCCCn1c2c(cc(C(=O)N[C@H](C)C3CCCCC3)c1=O)CCCCCC2 [Compound 10-050] | 2 nM
67 | CCCCn1c2c(cc(C(=O)N[C@H](CC)c3ccccc3)c1=O)CCCCCC2 [Compound 10-058] | 2.4 nM
68 | CCCCn1c2c(cc(C(=O)N[C@@H](CC)c3ccccc3)c1=O)CCCCCC2 [Compound 10-059] | 6.1 nM
69 | CCCCn1c2c(cc(C(=O)N[C@H](CF)c3ccccc3)c1=O)CCCCCC2 [Compound 10-089] | 9.4 nM
70 | CCCCn1c2c(cc(C(=O)Nc3ccccc3C(F)(F)F)c1=O)CCCCCC2 [Compound 10-103] | 6.3 nM
71 | CCCCn1c(C)c(C)cc(C(=O)NC(C)(C)c2ccccc2)c1=O [Compound 11-001] | 1.2 nM
72 | Cc1cc(C(=O)NC2CCCc3ccccc32)c(=O)n(CC2CCCCC2)c1C (stereo not drawn) [Compound 11-011] | 0.6 nM
73 | CCC(C)CNC(=O)c1cc(C)c(C)n(CC2CCCCC2)c1=O (stereo not drawn) [Compound 11-012] | 7.8 nM
74 | Cc1cc(C(=O)NCC(C)(C)C)c(=O)n(CC2CCCCC2)c1C [Compound 11-013] | 7.5 nM
75 | CCCCn1c2c(cc(NC(=O)c3ccccc3Cl)c1=O)CCCCCC2 [Compound 13-006] | 1.6 nM
76 | CCCCn1c2c(cc(C(=O)NC(C)(C)c3ccccc3)c1=O)[C@@H]1CC[C@H]2C1 [Compound 13-023] | 0.3 nM
77 | CCCCn1c(-c2ccccc2)c(C)cc(C(=O)NC(C)(C)c2ccccc2)c1=O [Compound 13-030] | 0.7 nM
78 | CCCCn1c2c(cc(C(=O)NC(C)(C)c3ccccc3)c1=O)COCC2 [Compound 13-044] | 1.8 nM
